This is an account of results in patent US7968577B2 (Bristol-Myers Squibb Company, priority 2006, dated 2011).

For orientation: EC50 means the concentration at which the effect is half-maximal. Read a high EC50 as a less potent agent.

In this assay the test system is AP-1 induced transcriptional activity. Description: Cellular Transrepressional Assay: AP-1 luciferase reporter in PMA-activated A549 cells. The assay is classed as cell-based. The following applies: for Emax: A549, 7 h, maximum inhibition, read-out: AP-1 Max % inh (Cellular Transrepression Assay). The protocol:
Cellular Transrepressional Assay
To measure the ability of test molecules to inhibit AP-1 induced transcriptional activity we utilized an A549 cell which was stably transfected with a plasmid containing 7× AP-1 DNA binding sites (pAP-1-Luc plasmid, Stratagene Co. La Jolla, Calif.) followed by the gene for luciferase. Cells were activated with 10 ng/ml of […] (PMA) plus or minus test molecules for 7 hours. After 7 hours a luciferase reagent was added to measure luciferase enzymatic activity in the cell. After a 10 minute incubation of luciferase reagent with cells, luminescence was measured in a TopCount luminescence counter. Repression of AP-1 activity was calculated as the percentage decrease in the signal induced by PMA alone. Test molecules were analyzed in the concentration range from 0.1 nM to 40 μM. EC50s were determined by using standard curve fitting methods such as Excel fit (Microsoft Co.).

Setting [1] is: Homo sapiens, Cellular Transrepression Assay.
Where [2] appears, read: Homo sapiens, A549, Cellular Transrepression Assay.

For `CC(C)(C(=O)Nc1nncs1)C(c1ccccc1)c1ccc(-c2ccc(C(=O)NC3CC3)cc2)cc1` (stereo not drawn) [Example 425, N-cyclopropyl-4′-(2,2-dimethyl-3-oxo-1-phenyl-3-(1,3,4-thiadiazol-2-ylamino)propyl)-4-biphenylcarboxamide], under setting [1], the Emax worked out at 28.7%. Under setting [2], this compound registered an EC50 of 3.63 nM.
For `CC(C)(C(=O)Nc1nc(Cc2ccc(-c3ccncc3)cc2)cs1)[C@@H](c1ccccc1)c1ccc(O)cc1` [Example 354, 3-(4-hydroxyphenyl)-2,2-dimethyl-3-phenyl-N-(4-((4-(4-pyridinyl)phenyl)methyl)-1,3-thiazol-2-yl)propanamide], in that order: 71.8% and 158 nM.
In the same order, the values of `COc1ccc([C@H](c2ccccc2)C(C)(C)C(=O)Nc2nc(Cc3ccc(-c4ccncc4)cc3)cs2)cc1` (stereo in doubt) [Example 291, 2,2-dimethyl-3-(4-(methyloxy)phenyl)-3-phenyl-N-(4-((4-(4-pyridinyl)phenyl)methyl)-1,3-thiazol-2-yl)propanamide] are 74.3% and 10.3 nM.
As for `COc1ccc(C(c2ccccc2)C(C)(C)C(=O)Nc2ncc(C)s2)cc1` (stereo not drawn) [Example 105, 2,2-dimethyl-3-(4-(methyloxy)phenyl)-N-(5-methyl-1,3-thiazol-2-yl)-3-phenylpropanamide], the Emax under setting [1] is 22.1%.
Consider `CC(=O)c1ccc(C(c2ccccc2)C(C)(C)C(=O)Nc2nncs2)cc1` (stereo not drawn) [Example 369, 3-(4-acetylphenyl)-2,2-dimethyl-3-phenyl-N-1,3,4-thiadiazol-2-ylpropanamide], for which, under setting [1], the Emax was found to be 34.9%. In addition, the EC50 under setting [2] stood at 819 nM.
For `CC(C)(C(=O)Nc1nncs1)C(c1ccc(N2CCOCC2)cc1)c1cccc(F)c1` (stereo not drawn) [Example 229, 3-(3-fluorophenyl)-2,2-dimethyl-3-(4-(4-morpholinyl)phenyl)-N-1,3,4-thiadiazol-2-ylpropanamide], in that order: 44.2% and 18.6 nM.
In the case of `Cc1cccc(-c2csc(NC(=O)C(C)(C)C(c3ccccc3)c3ccccc3)n2)c1` [Example 170, 2,2-dimethyl-N-(4-(3-methylphenyl)-1,3-thiazol-2-yl)-3,3-diphenylpropanamide], the Emax under setting [1] came to 27%.
Take `CCCc1ccc(-c2ccc(C(CC(C)C)C(C)(C)C(=O)Nc3nccs3)cc2)cc1` (stereo not drawn) [Example 398, 2,2,5-trimethyl-3-(4′-propyl-4-biphenylyl)-N-1,3-thiazol-2-ylhexanamide]: the Emax under setting [1] was determined as 28.2%. Under setting [2], this compound returned an EC50 of 70 nM.
For `CC(C)(C(=O)Nc1nc(Cc2ccc(-c3ccncc3)cc2)cs1)C(c1ccc(O)cc1)c1ccc(O)cc1` [Example 356], in that order: 61.1% and 736 nM.
`COc1cccc(C(c2ccccc2)C(C)(C)C(=O)Nc2nccs2)c1` (stereo not drawn) [Example 91, 2,2-dimethyl-3-(3-(methyloxy)phenyl)-3-phenyl-N-1,3-thiazol-2-ylpropanamide]: the Emax under setting [1] came out at 23.2%.
As for `CC(C)(C(=O)Nc1nccs1)[C@@H](c1ccccc1)c1ccc(OC(=O)c2ccco2)cc1` [Example 362, 4-((1S)-2,2-dimethyl-3-oxo-1-phenyl-3-(1,3-thiazol-2-ylamino)propyl)phenyl 2-furancarboxylate], the Emax under setting [1] was 33.4%. The same compound had an EC50 under setting [2] of 16.6 nM.
`Cc1cccc(C(c2ccc(N3CCOCC3)cc2)C(C)(C)C(=O)Nc2nccs2)c1` (stereo not drawn) [Example 234, 2,2-dimethyl-3-(3-methylphenyl)-3-(4-(4-morpholinyl)phenyl)-N-1,3-thiazol-2-ylpropanamide]: the Emax under setting [1] turned out to be 39%. Further, under setting [2], a half-maximal effect (EC50) was put at 573 nM.
Take `CC(C)(C(=O)Nc1nncs1)C(c1ccccc1)c1ccc(N2CCOCC2)cc1` (stereo not drawn) [Example 225, 2,2-dimethyl-3-(4-(4-morpholinyl)phenyl)-3-phenyl-N-1,3,4-thiadiazol-2-ylpropanamide]: the response (Cellular Transrepression Assay) was half-maximal at 114 nM (EC50). In addition, the Emax under setting [1] was 34.3%.
For the compound `COc1ccc(-c2ccc(C(c3ccccc3)C(C)(C)C(=O)Nc3nccs3)cc2)cc1` (stereo not drawn) [Example 374, 2,2-Dimethyl-3-(4′-(methyloxy)-4-biphenylyl)-3-phenyl-N-1,3-thiazol-2-ylpropanamide], the Emax under setting [1] came to 39.7%. This compound also gave an EC50 under setting [2] of 121 nM.
`Cc1cnc(NC(=O)C(C)(C)C(c2ccccc2)c2cccc(O)c2)s1` (stereo not drawn) [Example 199, 3-(3-hydroxyphenyl)-2,2-dimethyl-N-(5-methyl-1,3-thiazol-2-yl)-3-phenylpropanamide]: the Emax under setting [1] is 31.1%.
`CC(C)(C(=O)Nc1nc(Cc2ccc(-c3ccncc3)cc2)cs1)C(c1ccccc1)c1ccc(F)cc1` (stereo not drawn) [Example 302, 3-(4-fluorophenyl)-2,2-dimethyl-3-phenyl-N-(4-((4-(4-pyridinyl)phenyl)methyl)-1,3-thiazol-2-yl)propanamide]: under setting [1], the Emax is 76.8%. Moreover, the EC50 under setting [2] was determined as 33.3 nM.
In the case of `CCOC(=O)c1sc(NC(=O)C(C)(C)C(c2ccc(O)cc2)c2ccc(O)cc2)nc1C` [Example 194, ethyl 2-((3,3-bis(4-hydroxyphenyl)-2,2-dimethylpropanoyl)amino)-4-methyl-1,3-thiazole-5-carboxylate], under setting [1], the Emax was 25.4%.
Turning to `COc1ccc(Cc2csc(NC(=O)C(C)(C)C(c3ccccc3)c3ccccc3)n2)cc1` [Example 297, 2,2-dimethyl-N-(4-((4-(methyloxy)phenyl)methyl)-1,3-thiazol-2-yl)-3,3-diphenylpropanamide], the Emax under setting [1] is 77.3%. For the same compound, the half-maximal effective concentration (EC50) under setting [2] was 262 nM.
Turning to `CC(C)(C)NC(=O)c1ccc(-c2ccc(C(c3ccccc3)C(C)(C)C(=O)Nc3nncs3)cc2)cc1` (stereo not drawn) [Example 424, N-tert-butyl-4′-(2,2-dimethyl-3-oxo-1-phenyl-3-(1,3,4-thiadiazol-2-ylamino)propyl)-4-biphenylcarboxamide], under setting [1], the Emax came to 26.4%. The same compound returned an EC50 under setting [2] of 14.5 nM.
As to `CC(C)(C(=O)Nc1nc(CCc2ccccc2)cs1)C(c1ccccc1)c1cccc(O)c1` (stereo not drawn) [Example 203, 3-(3-hydroxyphenyl)-2,2-dimethyl-3-phenyl-N-(4-(2-phenylethyl)-1,3-thiazol-2-yl)propanamide], under setting [1], the Emax was determined as 35.1%.
In the case of `COCc1ccc(-c2ccc(C(c3ccccc3)C(C)(C)C(=O)Nc3nncs3)cc2)cc1` (stereo not drawn) [Example 408, 3-(4′-(methoxymethyl)-4-biphenylyl)-2,2-dimethyl-3-phenyl-N-1,3,4-thiadiazol-2-ylpropanamide], under setting [1], the Emax was found to be 24.9%. This compound registered an EC50 under setting [2] of 39.8 nM.
As to `CC(C)(c1ccccc1)c1csc(NC(=O)C(C)(C)C(c2ccccc2)c2ccccc2)n1` [Example 181, 2,2-dimethyl-N-(4-(1-methyl-1-phenylethyl)-1,3-thiazol-2-yl)-3,3-diphenylpropanamide], the Emax under setting [1] stood at 28.9%.
The same measure, in the same setting: for `COc1ccc(C(c2ccccc2)C(C)(C)C(=O)Nc2nc(C)c(C)s2)cc1` (stereo not drawn) [Example 106, N-(4,5-dimethyl-1,3-thiazol-2-yl)-2,2-dimethyl-3-(4-(methyloxy)phenyl)-3-phenylpropanamide] the value was 35.9%.
As to `COc1ccc(C(c2ccccc2)C(C)(C)C(=O)Nc2nc(Cc3ccc(-c4ccncc4)cc3)cs2)cc1` (stereo not drawn) [Example 289, 2,2-dimethyl-3-(4-(methyloxy)phenyl)-3-phenyl-N-(4-((4-(4-pyridinyl)phenyl)methyl)-1,3-thiazol-2-yl)propanamide], the Emax under setting [1] amounted to 71.6%. Under setting [2], the EC50 was 18.5 nM.
In the same order, the values of `Cc1ccc(-c2csc(NC(=O)C(C)(C)C(c3ccccc3)c3ccccc3)n2)c2ccccc12` [Example 164, 2,2-dimethyl-N-(4-(4-methyl-1-naphthalenyl)-1,3-thiazol-2-yl)-3,3-diphenylpropanamide] are 75.2% and 810 nM.
Turning to `CC(C)(C(=O)Nc1nc(-c2ccc(F)cc2)cs1)C(c1ccccc1)c1ccccc1` [Example 168, N-(4-(4-fluorophenyl)-1,3-thiazol-2-yl)-2,2-dimethyl-3,3-diphenylpropanamide], the Emax under setting [1] was determined as 23%.
With `CC(C)(C(=O)Nc1nc(Cc2ccc(-c3ccncc3)cc2)cs1)C(c1ccccc1)c1ccccc1` [Example 299, 2,2-dimethyl-3,3-diphenyl-N-(4-((4-(4-pyridinyl)phenyl)methyl)-1,3-thiazol-2-yl)propanamide], the Emax under setting [1] is 69.3%. The compound also yielded an EC50 under setting [2] of 13.3 nM.
In the case of `COc1cccc(C(c2ccccc2)C(C)(C)C(=O)Nc2nc(C(C)(C)C)cs2)c1` (stereo not drawn) [Example 96, N-(4-(1,1-dimethylethyl)-1,3-thiazol-2-yl)-2,2-dimethyl-3-(3-(methyloxy)phenyl)-3-phenylpropanamide], under setting [1], the Emax came out at 37.1%.
Regarding `CC(C)Cc1ccc(-c2ccc(C(CC(C)C)C(C)(C)C(=O)Nc3nccs3)cc2)cc1` (stereo not drawn) [Example 396, 2,2,5-trimethyl-3-(4′-(2-methylpropyl)-4-biphenylyl)-N-1,3-thiazol-2-ylhexanamide], the Emax under setting [1] came out at 31.5%. Further, the EC50 under setting [2] was found to be 227 nM.
In the case of `CCOC(=O)c1sc(NC(=O)C(C)(C)C(c2ccccc2)c2ccc(O)cc2)nc1C` (stereo not drawn) [Example 218, ethyl 2-((3-(4-hydroxyphenyl)-2,2-dimethyl-3-phenylpropanoyl)amino)-4-methyl-1,3-thiazole-5-carboxylate], under setting [1], the Emax worked out at 38%.
On to `CC(C)(C(=O)Nc1nccs1)C(c1ccccc1)c1ccc(N2CCOCC2)cc1` (stereo not drawn) [Example 224, 2,2-dimethyl-3-(4-(4-morpholinyl)phenyl)-3-phenyl-N-1,3-thiazol-2-ylpropanamide], for which the Emax under setting [1] stood at 33.8%. The compound also came in with an EC50 under setting [2] of 161 nM.
